Experimental data reported in US8338473B2, “Derivatives of psammaplin A, a method for their synthesis and their uses for the prevention or treatment of cancer” (Centre National de la Recherche Scientifique, priority 2007, dated 2012).

Legend:
[1] = system: cancer cell lines A-375, DU145 and HCT-116; experiment: Dose response curves, anti-proliferative activity on cancer cell lines; format: cell-based; settings: range over A-375, DU145, HCT-116; read-out: IC50 values, anti-proliferative activity on different types of cancer cell lines
Method: HCT-116, A-375 and DU-145 cells were plated at 8000 cells per well in 96-well transparent cell culture grade plates (Corning). Plates were kept in the humidified CO2 (5%) incubator overnight so that cells get attached to the bottom. […] Viable cells cleave the MTT tetrazolium ring into a dark blue formazan reaction product, whereas dead cells remain colorless. The MTT-containing medium was gently removed and DMSO was added in each well. After shaking, the plates were read in absorbance at 540 nm. All results are expressed as the average of three wells. Percent cytotoxicity was measured of each compound and represented in terms of its IC50 values.
Anti-proliferative activity on cancer cell lines A-375, DU145 and HCT-116: […]

[2] = system: breast cancer cells (ZR75.1); experiment: Anti-proliferative and apoptogenic action in breast cancer cells; format: cell-based; settings: data not shown
RARβ2 promoter = experiment: Methylation specific PCR for the RARβ gene; format: cell-based; settings: 16 and 24 hrs
Method: FIG. 2: a) Methylation specific PCR for the RARβ gene after 16 and 24 hrs of treatment with the indicated compounds; b) Methylation specific PCR for the p16 gene after 24 hrs of the indicated treatments. Samples are representative of real duplicates; c) p16 expression levels in U937 cells after 24 hrs with the indicated treatments; d) DNMT enzymatic in vitro assay carried out with 1.5 and 50 μM of the indicated compounds;
Cells were resuspended into 150 μl of TE (Tris 10 mM—EDTA 1 mM). 1.5 mL of lysis buffer (10 mM Tris pH 8.0—0.1 mM EDTA pH 8.0—0.5% SDS—20 μg/ml Rnase Dnase-free) were added, and after an incubation time of 1 h at 37° C., a second incubation at 56° C. with proteinase K at 100 μg/ml final concentration was performed over night. Proteins were removed by phenol-chloroform extraction. The genomic DNA was then precipitated with 0.2 vol. of 10M ammonium acetate and 2 vol. ethanol, and centrifuged at 13000 rpm for 5 min. The DNA pellet was washed with 70% ethanol, air dried and resuspended in nuclease free water at 4° C. on rocking table. The concentration was measured at 260 nm. […]
20 μg of genomic DNA (or in vitro methylated DNA) were mixed with 5.5 μl of 3M NaOH, the volume was adjusted to 55.5 μl with filtered water. […] The PCR product (10 μl+5 μl loading dye) was analyzed on 1.5% agarose gel.

TRAIL promoter = experiment: Histone H3 acetylation at the TRAIL locus (Chip and qPCR) in U937 cells; format: cell-based, human; settings: U937, time course
Method: (§1) FIG. 5: a) Analysis of the histone H3 acetylation levels on the TRAIL promoter regulatory region and on the TRAIL gene first intron carried out Chip and qPCR in U937 cells after the indicated time course with UVI5008; the ‘NoAb’ represents the negative control; b) TRAIL mRNA expression after the indicated times of incubation with UVI5008; G6PDH levels have been used for equal loading; c) TRAIL protein expression levels measured by ELISA assay in U937 cells after 24 hrs treatment with UVI5008.

TRAIL = TRAIL expression (RT-PCR and ELISA) in U937 cells; format: cell-based, human; settings: protein after 24 hrs
Method: as §1

[3] = system: ex vivo AML patient blasts; experiment: Cell cycle and apoptosis in ex vivo AML patient blasts; format: cell-based, human
Method: FIG. 4: a) Cell cycle analyses and apoptosis carried out in ex vivo samples from AML patients identified with numbers; b) Cell cycle analysis, apoptosis and histone H3 acetylation levels of #116 AML cells after 20 hrs is of the indicated treatments.
Human leukemia cell line U937 was propagated in RPMI medium supplemented with 10% FBS (Foetal bovine serum; Hyclone) and antibiotics (100 U/mL penicillin, 100 μg/mL streptomycin and 250 ng/mL amphotericin-B). Cells were kept at the constant concentration of 200000 cells per milliliter of culture medium. For AML samples, bone marrow containing 80% to 90% leukemic blasts was purified over Ficoll. This study was approved by the Ethical Committee of the Second University of Naples.

DU-145 cells = experiment: MTT cytotoxicity assay, DU-145; settings: read-out: IC50 values, MTT cytotoxicity assay; DU-145, 48 h

O=C(NCCSSCCNC(=O)C(Cc1c[nH]c2ccc(Br)cc12)=NO)C(Cc1c[nH]c2ccc(Br)cc12)=NO [UVI5008]
IC50 [1]: 1500 to 3000 nM
anti-proliferative and apoptogenic action [2]: confirmed
unmethylated RARβ2 (MSP) (RARβ2 promoter): significant increase
H3K9 acetylation of the chromatin at the TRAIL promoter (TRAIL promoter): rapid dramatic H3K9 acetylation
TRAIL expression at mRNA and protein levels (TRAIL): increased expression
apoptotic activity ([3]; 5 μM, two samples of patient blasts): showed an apoptotic activity
cell cycle arrest and apoptosis (caspase 3 activation) ([3]; 4 ex vivo cultures, AML patients #102, #108, #109, #116): induced cell cycle arrest and apoptosis
IC50 (DU-145 cells): 2400 ± 300 nM
